Results published in PMC5653977 (EMBO Molecular Medicine, 2017).

Columns and labels:
[1] = test system: AKT; assay: Western blot of pAKT in prefrontal cortex of spironolactone-treated mice; assay type: in vivo, mouse; settings: Nrg1-tg and wt mice, 50 mg/kg s.c. daily for 21 days, prefrontal cortex lysates
Procedure: For the generation of lysates, the isolated tissue was immediately placed into cooled (4°C) sucrose buffer (320 mM sucrose, 10 mM Tris–HCl, 1 mM NaHCO3, 1 mM MgCl2, supplemented with 10 mM NaF, 1 mM […], 1 mM ZnCl2, 4.5 mM Na4P20_7 as phosphatase inhibitors, and the complete protease inhibitor cocktail (Roche)), homogenized using an ultra‐turrax (IKA GmbH, Staufen, Germany), sonicated (3 pulses for 10 s), and denatured for 10 min at 70°C in LDS sample buffer.
Each blot was replicated two times.
(§1) Treatment was continued throughout the behavioral analysis period. To avoid injection‐induced stress prior to behavioral testing, mice were injected in the afternoon, after the entire cohort has completed the behavioral paradigm.

[2] = test system: Nrg1-tg and wt mice; assay: Light-dark preference test; assay type: in vivo, mouse; settings: 50 mg/kg s.c. daily
Procedure: (§2) For behavioral testing, age‐matched male mice (8–16 weeks) on C57Bl/6 background that constitutively overexpress the 2xHA‐tagged Nrg1 type III β1a isoform (Nrg1‐tg) under the control of the mouse Thy1.2 promoter (Velanac et al, 2012) and their wild‐type (wt) littermates as controls were used. Animals were group‐housed in the same ventilated sound‐attenuated rooms under a 12‐h light/12‐h dark schedule (lights on at 8:00 am) at an ambient temperature of 21°C with food and water available ad libitum. One week prior to experiments, mice were separated into single cages and habituated to the experimental rooms. To minimize the influence of the circadian rhythm on drug actions, the treatment groups were analyzed at balanced time points during the light phase. […] All animal experiments were conducted in accordance with NIH principles of laboratory animal care and were approved by the Government of Lower Saxony, Germany, in accordance with the German Animal Protection Law.
as §1

[3] = mouse, in vivo
Procedure: as §1

[4] = test system: Nrg1-tg and wt mice; assay: Prepulse inhibition (PPI); assay type: in vivo, mouse
Procedure: as §2, §1
The startle response was measured using a two test cabinet (SR‐LAB, San Diego Instruments) using a protocol as described in Brzózka et al (2010).

[5] = target: ERBB2-NTEV-tevS-GV + ERBB2-CTEV (Homo sapiens, UniProt P04626); assay: ERBB dimerization split TEV assay ERBB2/ERBB2; assay type: cell-based; settings: 10 ng/ml EGFld
Description: Gateway recombination cloning (Life Technologies) was applied for generating plasmids. Each ORF cloned was PCR‐amplified using the Pwo proofreading DNA polymerase (Roche) and BP‐recombined into the pDONR/Zeo plasmid (Life Technologies) to yield an entry vector, which was control‐digested using BsrGI to release the insert, and sequence‐verified. The following human ORFs were cloned using cDNA image clones ordered from Source BioScience: ERBB4 transcript variant JM‐a/CYT‐1 (Accession: BC112199), PIK3R1 (BC094795), GRB2 transcript variant 1 (BC000631), SHC1 transcript variant 2 (BC014158), STAT5A (BC027036), and SRC transcription variant 1 (BC051270). For EGFR, ERBB2, and ERBB3, entry vectors were obtained from the human CCSB kinase collection available from Addgene (Johannessen et al, 2010). Entry vectors were LR‐recombined into split TEV destination vectors [either pcDNA_attR1‐ORF‐attR2‐NTEV‐tevS‐GV‐2xHA_DEST or pTag4C_attR1‐ORF‐attR2‐CTEV‐2xHA_DEST, plasmids were described in detail before (Wehr et al, 2006)] to yield expression vectors, which were control‐digested using BsrGI. The plasmids for Nrg1 type I β1a and rat Nrg1 type III β1a have been described before (Wehr et al, 2006).

[6] = test system: GAL4/UAS system; assay: GAL4/UAS control assay; assay type: cell-based; settings: GV and 10×UAS-Fluc plasmids in PC12 cells
Description: All counts (407 compounds and 96 controls) from the Nrg1‐ERBB4‐PIK3R1 split TEV compound screen were plotted against the z‐score using Mondrian, with pathway activators displaying high values and inhibitors low values. For the secondary analysis, we selected all candidates that were at least three standard deviations away from the mean. […] For the GAL4/UAS assay, GAL4‐VP16 (GV) and 10×UAS firefly luciferase (10×UAS‐Fluc) plasmids were transfected into PC12 cells. For TEV protease activity assays, a transmembrane‐localized TEV protease (TM‐TEV) was expressed in PC12 cells with a transmembrane‐localized and TEV‐cleavable GV (TM‐tevS‐GV) and the 10×UAS‐Fluc reporter. […] EGFld was applied as Nrg1 stimulus. In both control assays, the assay activity (firefly luciferase, black lines) was similar to the toxicity levels (gray lines). Data are shown as mean, a nd error bars represent SEM, n = 6. The insets depict IC50 values in μM.

[7] = test system: pyramidal neurons of the prefrontal cortex; assay: Evoked inhibitory postsynaptic currents (eIPSCs) in acute prefrontal cortex slices; assay type: cell-based, mouse; settings: 5 μM in the presence of canrenone (10 μM)
Procedure: 300‐μm‐thick transverse slices comprising the medial prefrontal cortex (mPFC) area were prepared from 7‐ to 8‐week‐old C57Bl/6 mice as described previously (Teng et al, 2013; Agarwal et al, 2014). All recordings were performed in cortical layer V projection neurons. The bath solution consisted of oxygenated artificial cerebrospinal fluid (ACSF) containing NaCl 126 mM, KCl 3 mM, NaH2PO4 1.25 mM, MgSO4 1 mM, NaHCO3 26 mM, CaCl2 2 mM, glucose 10 mM, and the pH 7.2 adjusted with NaOH. Spontaneous GABAergic inhibitory postsynaptic currents (sIPSC) and evoked GABAergic inhibitory postsynaptic currents (eIPSC) were recorded at a holding potential of −70 mV in the presence of 6‐cyano‐7‐nitroquinoxaline‐2,3‐dione (CNQX, 10 μM) and DL‐2‐amino‐5‐phosphonovaleric acid (D‐APV, 50 μM). Glass pipettes were filled with the solution containing: KCl 140 mM, MgCl2 2 mM, CaCl2 1 mM, Na2GTP 0.5 mM, Na2ATP 4 mM, EGTA 10 mM, HEPES 10 mM. Patches with a series resistance of > 25 MΩ, a membrane resistance of < 0.8 GΩ, or leak currents of > 150 pA were excluded. Biphasic rectangular electric pulses (10 ms, 100–300 μA) were applied to layer I of the prelimbic area of mPFC through another glass pipette filled with ACSF. Synaptic currents were acquired at 20 kHz and filtered at 6 kHz, with a Digidata 1440 ADC‐converter coupled to a Multiclamp 700B amplifier (Molecular Devices, USA). […]

[8] = 50 mg/kg s.c. daily for 3 weeks and throughout phenotyping, vs vehicle
[9] = before vs after chronic treatment, 50 mg/kg s.c. daily

ERBB2-NTEV-tevS-GV + ERBB2-CTEV, sequence (P04626 23-1255): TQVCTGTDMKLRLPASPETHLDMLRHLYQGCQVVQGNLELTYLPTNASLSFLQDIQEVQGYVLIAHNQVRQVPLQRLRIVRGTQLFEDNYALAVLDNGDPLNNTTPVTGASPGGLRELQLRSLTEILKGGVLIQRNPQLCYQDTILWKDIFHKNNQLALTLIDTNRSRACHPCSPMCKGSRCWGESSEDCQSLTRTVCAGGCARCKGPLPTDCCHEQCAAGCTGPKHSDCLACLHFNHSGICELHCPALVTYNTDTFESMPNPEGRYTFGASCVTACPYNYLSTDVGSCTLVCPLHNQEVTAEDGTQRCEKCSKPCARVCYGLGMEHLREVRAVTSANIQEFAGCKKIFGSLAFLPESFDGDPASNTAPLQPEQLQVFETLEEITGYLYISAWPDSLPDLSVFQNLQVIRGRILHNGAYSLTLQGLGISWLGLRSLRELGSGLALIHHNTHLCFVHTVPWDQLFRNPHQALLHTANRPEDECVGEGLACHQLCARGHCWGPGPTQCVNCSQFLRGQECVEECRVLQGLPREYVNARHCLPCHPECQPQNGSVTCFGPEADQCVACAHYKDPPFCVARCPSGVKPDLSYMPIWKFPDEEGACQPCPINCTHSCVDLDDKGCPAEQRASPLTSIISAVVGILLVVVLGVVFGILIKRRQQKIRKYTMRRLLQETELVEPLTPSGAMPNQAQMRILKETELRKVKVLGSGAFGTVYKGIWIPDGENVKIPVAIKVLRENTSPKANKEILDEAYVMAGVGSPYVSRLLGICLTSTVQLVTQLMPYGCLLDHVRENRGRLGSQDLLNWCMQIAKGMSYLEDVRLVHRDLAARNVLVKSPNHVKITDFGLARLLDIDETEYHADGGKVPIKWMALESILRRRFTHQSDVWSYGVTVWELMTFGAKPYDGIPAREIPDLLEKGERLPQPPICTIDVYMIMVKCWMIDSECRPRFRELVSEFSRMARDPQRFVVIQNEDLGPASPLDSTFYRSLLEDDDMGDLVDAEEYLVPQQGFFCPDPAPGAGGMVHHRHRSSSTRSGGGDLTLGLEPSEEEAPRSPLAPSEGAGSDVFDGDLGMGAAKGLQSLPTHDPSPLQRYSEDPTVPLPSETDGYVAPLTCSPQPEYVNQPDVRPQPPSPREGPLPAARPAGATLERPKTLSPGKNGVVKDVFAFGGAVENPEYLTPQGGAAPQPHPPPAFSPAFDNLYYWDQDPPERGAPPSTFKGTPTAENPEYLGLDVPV
ERBB2-NTEV-tevS-GV + ERBB2-CTEV, sequence (P04626 23-1255): as above

CC(=O)S[C@@H]1CC2=CC(=O)CC[C@]2(C)[C@H]2CC[C@@]3(C)[C@@H](CC[C@@]34CCC(=O)O4)[C@H]12 [Spironolactone]
pAKT (downstream signaling) [1]: neither modulated by Nrg1 overexpression, nor by spironolactone treatment
time in the light compartment [2]: spent more time in the light compartment
side effect in treated mice [3]: no major side effect
PPI in Nrg1-tg mice, four-arm study [4, 8]: significantly enhanced
PPI in wt mice, four-arm study [4, 8]: did not influence PPI
PPI in Nrg1-tg mice, pilot two-arm study [4, 9]: significantly improved
PPI in wt controls, pilot two-arm study [4, 9]: had no effect
IC50 [5]: 13.1 µM
effect on activity of the GAL4/UAS system [6]: does not affect activities of control assays
eIPSC amplitude [7]: significantly increased
